Test results as given in patent US8895746B2 (University of Central Florida Research Foundation, Inc., priority 2009, dated 2014).
Several values for one entry are separate records, joined by “and”; a condition that tells them apart may be missing. Equal values may be shown once.

What was measured:
[1] = target: T1, Stat3:EGFR immunecomplex (Homo sapiens, UniProt P40763); assay: Direct treatment of EGFR and Stat3 immunecomplexes from Panc-1 lysates, Western blotting; type: biochemical; conditions: 0-100 M, 3 h
T1 construct: precipitated from whole-cell lysates of untreated Panc-1 cells; endogenous in cells; host or cells: Panc-1 cells (immunoprecipitates from whole-cell lysates)
T1 sequence (P40763 2-770 limits assumed, one chain of several): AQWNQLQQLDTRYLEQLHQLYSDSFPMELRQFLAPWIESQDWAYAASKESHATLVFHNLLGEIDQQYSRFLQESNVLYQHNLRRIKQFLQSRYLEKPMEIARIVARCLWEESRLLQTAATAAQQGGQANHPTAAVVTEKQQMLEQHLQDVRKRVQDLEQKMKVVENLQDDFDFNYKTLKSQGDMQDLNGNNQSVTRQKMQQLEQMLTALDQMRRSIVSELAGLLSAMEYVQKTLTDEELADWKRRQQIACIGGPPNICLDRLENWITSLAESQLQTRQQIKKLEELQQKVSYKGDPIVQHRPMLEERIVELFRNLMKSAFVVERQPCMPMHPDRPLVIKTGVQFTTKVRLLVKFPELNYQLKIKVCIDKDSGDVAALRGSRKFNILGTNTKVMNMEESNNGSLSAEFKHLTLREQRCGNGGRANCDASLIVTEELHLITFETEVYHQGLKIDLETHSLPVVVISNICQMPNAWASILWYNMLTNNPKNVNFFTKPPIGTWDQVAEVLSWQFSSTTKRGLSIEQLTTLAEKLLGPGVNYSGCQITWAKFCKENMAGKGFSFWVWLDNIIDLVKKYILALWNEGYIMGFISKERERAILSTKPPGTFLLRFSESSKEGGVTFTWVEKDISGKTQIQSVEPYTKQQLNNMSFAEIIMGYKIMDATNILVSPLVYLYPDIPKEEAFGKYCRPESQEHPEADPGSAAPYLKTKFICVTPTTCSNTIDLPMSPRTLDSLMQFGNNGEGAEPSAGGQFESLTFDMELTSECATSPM
Description: (§1) Immunoprecipitation from whole-cell lysates and SDS/PAGE and Western blotting analysis were performed as previously described (33,38).
The EGFR levels in the immunecomplexes remained unchanged (FIG. 4B(ii), upper band). […] The Stat3 levels in the immunecomplexes remained unchanged (FIG. 4B(ii), i.p. Stat3, blot Stat3).

[2] = target: T2, His-tagged Stat3 (Mus musculus, UniProt P42227); assay: Surface Plasmon Resonance analysis of binding to immobilized His-tagged Stat3; design: species or system murine
T2 construct: Coding regions for the murine Stat3 protein; made in house; host or cells: E. coli BL21(DE3)
T2 sequence (P42227 whole entry): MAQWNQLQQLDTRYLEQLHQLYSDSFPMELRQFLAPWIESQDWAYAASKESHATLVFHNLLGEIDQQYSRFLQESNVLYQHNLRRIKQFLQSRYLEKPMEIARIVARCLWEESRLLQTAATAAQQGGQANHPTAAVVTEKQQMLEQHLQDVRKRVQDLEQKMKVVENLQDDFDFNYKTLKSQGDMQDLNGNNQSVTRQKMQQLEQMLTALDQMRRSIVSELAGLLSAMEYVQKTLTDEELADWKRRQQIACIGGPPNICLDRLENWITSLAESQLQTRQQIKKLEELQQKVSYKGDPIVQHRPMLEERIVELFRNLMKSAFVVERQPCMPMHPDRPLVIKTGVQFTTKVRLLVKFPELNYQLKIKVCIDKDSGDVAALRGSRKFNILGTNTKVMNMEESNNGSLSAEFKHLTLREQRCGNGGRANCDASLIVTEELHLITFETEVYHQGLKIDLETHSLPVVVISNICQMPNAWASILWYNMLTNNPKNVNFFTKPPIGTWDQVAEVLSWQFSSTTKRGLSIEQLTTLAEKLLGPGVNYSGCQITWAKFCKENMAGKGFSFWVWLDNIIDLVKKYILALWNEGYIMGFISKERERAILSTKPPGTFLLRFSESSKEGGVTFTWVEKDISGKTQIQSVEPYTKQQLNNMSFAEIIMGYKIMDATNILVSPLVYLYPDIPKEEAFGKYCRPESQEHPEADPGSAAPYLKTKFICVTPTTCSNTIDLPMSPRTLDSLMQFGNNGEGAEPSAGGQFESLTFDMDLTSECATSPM
Source text: (§2) Coding regions for the murine Stat3 protein and Stat3 SH2 domain were amplified by PCR and cloned into vectors pET-44 Ek/LIC (Novagen) and pET SUMO (Invitrogen), respectively.
Clones were sequenced to verify the correct sequences and orientation. His-tagged recombinant proteins were expressed in BL21(DE3) cells, and purified on Ni-ion sepharose column.
SensiQ and its analysis software Qdat (ICX Technologies, Oklahoma City, Okla.) were used to analyze the interaction between agents and the Stat3 protein and to determine the binding affinity. Purified Stat3 was immobilized on a HisCap Sensor Chip by injecting 50 µg/ml of Stat3 onto the chip. […] The association and dissociation rate constants were calculated using the Qdat software. The ratio of the association and dissociation rate constants was determined as the affinity (KD).
To provide definitive evidence of direct binding to Stat3, biophysical studies were performed. H1s-tagged Stat3 protein (or SH2 domain; 50 ng) was immobilized on a Ni-NTA sensor chip surface for Surface Plasmon Resonance analysis of the binding of 531201.1066 as the analyte. Association and dissociation measurements were taken and the binding affinity of S31-201.1066 for Stat3 was determined using Qdat software.

[3] = tested on: MDA-MB-231, Panc-1 and NIH3T3/v-Src cells; assay: Wound healing assay for migration; type: cell-based, human, mouse
Source text: Wounds were made using pipette tips in monolayer cultures of cells in six-well plates. […] The migration of cells was visualized at a 10× magnification using an Axiovert 200 Inverted Fluorescence Microscope (Zeiss, Göttingen Germany), with pictures taken using a mounted Canon Powershot A640 digital camera (Canon USA, Lake Success, N.Y.). Cells that migrated into the denuded area were quantified. Mice and in vivo tumor studies-Six-week-old female athymic nude mice were purchased from Harlan and maintained in the institutional animal facilities approved by the American Association for Accreditation of Laboratory Animal Care. Athymic nude mice were injected subcutaneously in the left flank area with 5×10^6 human breast cancer MDA-MB-231 cells in 100 μL of PBS. After 5 to 10 days, tumors of a diameter of 3 mm were established. […] Tumor volume was calculated according to the formula V=0.52×a^2×b, where a, smallest superficial diameter, b, largest superficial diameter.

[4] = target: T3, Stat3 SH2 domain (Mus musculus, UniProt P42227); assay: EMSA of Stat3 DNA-binding with added purified His-tagged Stat3 SH2 domain; type: biochemical, murine; conditions: 1-500 ng His-SH2; full recovery at 125-500 ng
T3 construct: Purified histidine-tagged Stat3 SH2 domain (His-SH2) was added at increasing concentrations (1-500 ng); SUMO (vector pET SUMO); made in house; host or cells: E. coli BL21(DE3)
T3 sequence (P42227 580-670 limits assumed): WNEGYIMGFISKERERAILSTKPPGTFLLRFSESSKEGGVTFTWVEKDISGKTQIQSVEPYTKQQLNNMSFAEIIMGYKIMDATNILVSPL
Source text: as §2

[5] = tested on: Src (pY416Src), Jak1 (pJak), Shc (pShc), and Erk1/2 (pErk1/2); assay: Western blot of phosphorylation of Src, Jak1, Shc, Erk1/2 in NIH3T3/v-Src and Panc-1 cells; type: cell-based, mouse, human
Description: as §1
We infer that […].

[6] = target: Stat3 (Mus musculus, UniProt P42227); assay: Fluorescence Polarization assay, Stat3 binding to 5-carboxyfluorescein-GpYLPQTV-NH2 probe; design: Coding regions for the murine Stat3 protein; made in house; host or cells: E. coli BL21(DE3); species or system murine; conditions: IC50, disruption of Stat3 binding to pTyr peptide probe, 150 nM Stat3, 10 nM probe
Chain of Stat3 (P42227 whole entry): as the sequence (P42227 whole entry) above
Description: as §2
Fluorescence Polarization (FP) Assay was conducted as previously reported (23), with some modification using the phospho-peptide, 5-carboxyfluorescein-GpYLPQTV-NH2 (phosphorylated SEQ ID NO:7) (where pY represents phospho-Tyr) as probe and Stat3. The FP assay was used to evaluate the binding of agents to Stat3 and to determine the ability to disrupt the Stat3:pTyr peptide interaction. A fixed concentration of the fluorescently-labeled peptide probe (10 nM) was incubated with increasing concentration of the Stat3 protein for 30 min at room temperature in the buffer, 50 mM NaCI, 10 mM HEPES, 1 mM EDTA, 0.1% Nonidet P-40, and the fluorescent polarization measurements were determined using the POLARstar Omega (BMG LABTECH, Durham, N.C.), with the set gain adjustment at 35 mP. The Z′ value was derived per the equation Z′=1−(3 SDbound+3 SD free)/(mPbound−mPfree), where SD is the standard deviation and mP is the average of fluorescence polarization. In the bound state, 10 nM 5-carboxyfluorescein-GpYLPQTV-NH2 (phosphorylated SEQ ID NO:7) was incubated with 150 nM purified Stat3 protein, while the free (unbound) state was the same mixture, but incubated with an additional 10 IJM unlabeled Ac-GpYLPQTV-NH2 (phosphorylated SEQ ID NO:7). For evaluating agents, Stat3 protein (150 nM) was incubated with serial concentrations of S31-201.1066 at 30° C. for 60 min in the indicated assay buffer conditions. Prior to the addition of the fluorescence probe, the protein:S31-201.1066 mixtures were allowed to equilibrate at room temperature for 15 min. Probe was added at a final concentration of 10 nM and incubated for 30 min at room temperature following which the FP measurements were taken using the POLARstar Omega, with the set gain adjustment at 35 mP.
The FP assay was used to further test the computational modeling prediction of the ability of S31-201.1066 to disrupt Stat3 interaction with its cognate pTyr peptide.

[7] = tested on: NIH3T3/v-Src, MDA-MB-231 and Panc-1 cells; assay: Viable cell numbers and growth (CyQuant, trypan blue exclusion), cells with aberrant Stat3; type: cell-based, mouse, human
[8] = tested on: NIH3T3/v-Src, Panc-1 and MDA-MB-231 cells; assay: Colony survival assay; type: cell-based, mouse, human; conditions: treated once
Description: This was performed as previously reported (39). […] Colonies were stained with crystal violet for 4 h and counted under phase-contrast microscope.
Cultured single-cells were untreated or treated once with S3I-201.1066 and allowed to grow until large colonies were visible, which were stained and enumerated.

[9] = increasing concentrations, 24-144 h

Cc1ccc(S(=O)(=O)N(C)CC(=O)N(Cc2ccc(C3CCCCC3)cc2)c2ccc(C(=O)O)c(O)c2)cc1 [S3I-201.1066]
EGFR levels in directly treated Stat3 immunecomplex [1]: strongly reduced EGFR levels | level of Stat3 present in directly treated EGFR immunecomplex [1]: dramatically diminished | levels of Shc or Grb 2 in directly treated EGFR immunecomplex [1]: no visible changes | Kd ([2]; affinity (KD) for Stat3 or the SH2 domain, SPR): 2.3 µM | Kd ([2]; binding affinity, Ko / KD for Stat3, SPR, immobilized His-Stat3): 0.00274 µM | numbers of cells migrating into the denuded area ([3]; 30 µM): statistically lower numbers | numbers of cells migrating into the denuded area ([3]; 12-24 h treatment): Significantly reduced numbers | apoptosis of the treated cells ([3]; 12-24 h treatment, data not shown): no evidence of apoptosis | numbers of cells migrating into the denuded area ([3]; 50 or 100 μM): strongly reduced numbers | inhibition of Stat3 DNA-binding activity in presence of increasing purified His-SH2 domain [4]: progressively eliminated | pJak1 level in Panc-1 cells ([5]; 100 μM, Panc-1): disappearance of pJak1 level | inhibitory effect on phosphorylation of Src, Jak1, Erk1/2MAPK and Shc ([5]; 30-50 μM): minimum inhibitory effect | phosphorylation of Src, Jak1, Shc and Erk1/2 ([5]; 24 h, NIH3T3/v-Src and Panc-1): no significant effects | IC50 [6]: 45 µM and 23 µM and 20 µM | concentrations at which antitumor cell effects occurred [7]: 30 to 50 µM | growth (trypan blue exclusion) [7, 9]: growth inhibited | viable cell numbers [7, 9]: significantly reduced viable cell numbers | number of colonies, colony survival [8]: dose-dependent suppression
